Holding throughout (type): cell-based
Assay [1] concerns the target T1, human OCT2 (Homo sapiens, UniProt O15244).
T1 construct: gene SLC22A2
T1 sequence (O15244 1-555): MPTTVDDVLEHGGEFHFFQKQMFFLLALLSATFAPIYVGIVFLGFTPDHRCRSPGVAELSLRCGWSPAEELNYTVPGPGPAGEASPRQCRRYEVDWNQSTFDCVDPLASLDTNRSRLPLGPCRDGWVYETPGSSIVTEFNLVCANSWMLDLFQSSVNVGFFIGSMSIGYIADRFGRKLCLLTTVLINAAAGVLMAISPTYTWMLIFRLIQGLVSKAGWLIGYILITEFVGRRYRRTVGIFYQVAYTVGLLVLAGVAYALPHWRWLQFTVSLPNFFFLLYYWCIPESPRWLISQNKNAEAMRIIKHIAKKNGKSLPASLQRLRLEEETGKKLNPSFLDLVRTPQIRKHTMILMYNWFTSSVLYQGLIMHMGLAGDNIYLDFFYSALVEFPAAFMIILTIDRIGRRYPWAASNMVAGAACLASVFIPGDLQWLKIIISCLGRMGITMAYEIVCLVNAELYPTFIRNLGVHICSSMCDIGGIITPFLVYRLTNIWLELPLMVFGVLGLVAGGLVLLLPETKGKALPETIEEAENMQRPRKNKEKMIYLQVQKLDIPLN
The assay is described as follows: competition of [3H]-histamine uptake in transfected HEK293T cells. To be noted: 2.5 uM [3H]-histamine, 30 min, 37 C, pH 7.4; competitor concentration for OCT2 not given.

The next assay has as its target T2, HisT (CG1358) (Drosophila melanogaster, UniProt A0A0B4JD50).
T2 sequence (A0A0B4JD50 1-482): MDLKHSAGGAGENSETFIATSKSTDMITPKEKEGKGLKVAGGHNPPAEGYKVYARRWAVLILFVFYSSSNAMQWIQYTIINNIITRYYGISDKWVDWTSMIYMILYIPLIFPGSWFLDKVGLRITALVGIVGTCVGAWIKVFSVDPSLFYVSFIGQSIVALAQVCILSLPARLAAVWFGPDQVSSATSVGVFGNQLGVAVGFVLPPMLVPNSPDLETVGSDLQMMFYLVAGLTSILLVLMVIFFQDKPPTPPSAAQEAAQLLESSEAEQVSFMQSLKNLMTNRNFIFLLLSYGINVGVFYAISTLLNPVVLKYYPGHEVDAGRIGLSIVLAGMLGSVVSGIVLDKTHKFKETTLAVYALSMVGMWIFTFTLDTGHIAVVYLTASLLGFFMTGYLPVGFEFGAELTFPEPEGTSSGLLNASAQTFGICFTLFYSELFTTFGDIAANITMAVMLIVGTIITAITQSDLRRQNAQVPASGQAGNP
The assay is described as follows: [3H]-histamine uptake in transfected HEK293T cells. Particulars: labelled compound; 2.5 uM, 30 min, 37 C, pH 7.4, ECF buffer with 120 mM NaCl.

In assay [2] the target is T1, human OCT2. The assay is described as follows: [3H]-histamine uptake in transfected HEK293T cells. To be noted: labelled compound; 2.5 uM, 30 min, 37 C, pH 7.4, ECF buffer with 120 mM NaCl.

From PMC9604546, “Drosophila HisT is a specific histamine transporter that contributes to histamine recycling in glia” (Science Advances, 2022) come the findings set out here.

SMILES strings stand for the structures.

On to `NCCC(=O)NCCc1c[nH]cn1` [carcinine], for which, on human OCT2 [1], the “inhibition of [3H]-histamine uptake” value was “OCT2-mediated [^3H]-histamine uptake was completely blocked by dopamine, serotonin, and carcinine”.

In the case of `NCCc1ccc(O)c(O)c1` [dopamine], at human OCT2 [1], the “inhibition of [3H]-histamine uptake” value is “OCT2-mediated [^3H]-histamine uptake was completely blocked by dopamine, serotonin, and carcinine”.

As for `NCCc1c[nH]cn1` [histamine], the “[3H]-histamine uptake in transfected HEK293T cells” value is reported as “is the only transporter exhibiting histamine uptake activity in vitro” at HisT (CG1358) and “OCT2), which mediates the low-affinity transport of some monoamine neurotransmitters including histamine” at human OCT2 [2].

For `NCCc1c[nH]c2ccc(O)cc12` [serotonin], the “inhibition of [3H]-histamine uptake” value on human OCT2 [1] is “OCT2-mediated [^3H]-histamine uptake was completely blocked by dopamine, serotonin, and carcinine”.
